Test results published in ChEMBL document CHEMBL6103648, “AI-Driven Discovery of Highly Specific and Efficacious hCES2A Inhibitors for Ameliorating Irinotecan-Triggered Gut Toxicity” (J Med Chem, 2025).
Activity calls are given as the source filed them. No cut-off for these calls is given here.

How the values were obtained:
Cytochrome P450 2D6 = Cytochrome P450 2D6 (Homo sapiens, UniProt P10635); test: Inhibition of CYP2D6 in human liver microsomes using dextromethorphan as substrate upto 10 uM; type: ADME, Microsome
Sequence of Cytochrome P450 2D6 (P10635 whole entry): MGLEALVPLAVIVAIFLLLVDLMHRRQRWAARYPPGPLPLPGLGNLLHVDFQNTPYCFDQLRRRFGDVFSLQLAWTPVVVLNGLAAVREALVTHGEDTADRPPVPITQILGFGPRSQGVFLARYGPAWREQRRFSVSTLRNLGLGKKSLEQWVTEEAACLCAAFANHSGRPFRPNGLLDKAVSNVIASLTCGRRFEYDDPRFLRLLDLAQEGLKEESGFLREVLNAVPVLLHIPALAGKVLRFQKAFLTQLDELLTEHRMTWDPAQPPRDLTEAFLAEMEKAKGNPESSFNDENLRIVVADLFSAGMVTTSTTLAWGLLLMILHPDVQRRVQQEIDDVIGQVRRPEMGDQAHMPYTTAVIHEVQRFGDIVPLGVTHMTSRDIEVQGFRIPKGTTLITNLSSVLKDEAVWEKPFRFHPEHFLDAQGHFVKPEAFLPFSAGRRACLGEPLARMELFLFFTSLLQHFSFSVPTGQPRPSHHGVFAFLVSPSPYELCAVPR

Homo sapiens [1] = species on record: Homo sapiens; test: Irreversible inhibition of human CES2A measured after 12 hrs by dialysis assay
[2] = Sub-acute toxicity in C57BL/6J mouse assessed as body weight change at 100 mg/kg/day, po treated for 14 days consecutively; type: organism-based; details: in vivo, 336 h, time 14 day
[3] = Drug distribution in duodenum of C57BL/6J mouse at 100 mg/kg, po administered as single dose measured for 0.5 to 3 hrs by UHPLC-Q-Orbitrap HRMS analysis; type: ADME, organism-based; details: in vivo, time 0.5-3 hrs
[4] = Efflux ratio of apparent permeability across basal to apical side over apical to basal side in human Caco-2 cells at 50 uM incubated for 120 mins by UPLC-MS/MS analysis; type: ADME, cell-based
[5] = Efflux ratio of apparent permeability across basal to apical side over apical to basal side in human Caco-2 cells at 25 uM incubated for 120 mins by UPLC-MS/MS analysis; type: ADME, cell-based
[6] = Inhibition of human CES2A incubated for 33 mins
[7] = Drug distribution in colon of C57BL/6J mouse at 100 mg/kg, po administered as single dose measured for 0.5 to 3 hrs by UHPLC-Q-Orbitrap HRMS analysis; type: ADME, organism-based; details: in vivo, time 0.5-3 hrs
Mus musculus [8] = test: Inhibition of irinotecan-triggered gut toxicity in C57BL/6J mouse bearing tumor cells assessed as increase in colonic length at 25 to 50 mg/kg/day, po treated for 14 days; type: functional, organism-based; details: dose 25-50 mg/kg/day, time 14.0 day
Mus musculus [9] = test: Inhibition of irinotecan-triggered gut toxicity in C57BL/6J mouse bearing tumor cells assessed as increase in occludin level in colon tissue at 25 to 50 mg/kg/day, po treated for 14 days by immunofluorescence based analysis; type: functional, organism-based; details: dose 25-50 mg/kg/day, time 14.0 day
Homo sapiens [10] = species on record: Homo sapiens; test: Inhibition of human CES2A assessed as decrease in residual activity measured upto 30 mins; details: dose <= 1.6 nM
[11] = Permeability across apical to basal side in human Caco-2 cells assessed as cumulative penetration amount at 100 uM incubated for 120 mins by UPLC-MS/MS analysis; type: ADME, cell-based; details: caco-2, 2 h
Dipeptidyl peptidase 4 = Dipeptidyl peptidase 4 (Homo sapiens, UniProt P27487); test: Inhibition of human serum DPP-IV using GP-BAN as substrate preincubated for 3 mins followed by substrate addition by fluorescence based assay
Sequence of Dipeptidyl peptidase 4 (P27487 whole entry): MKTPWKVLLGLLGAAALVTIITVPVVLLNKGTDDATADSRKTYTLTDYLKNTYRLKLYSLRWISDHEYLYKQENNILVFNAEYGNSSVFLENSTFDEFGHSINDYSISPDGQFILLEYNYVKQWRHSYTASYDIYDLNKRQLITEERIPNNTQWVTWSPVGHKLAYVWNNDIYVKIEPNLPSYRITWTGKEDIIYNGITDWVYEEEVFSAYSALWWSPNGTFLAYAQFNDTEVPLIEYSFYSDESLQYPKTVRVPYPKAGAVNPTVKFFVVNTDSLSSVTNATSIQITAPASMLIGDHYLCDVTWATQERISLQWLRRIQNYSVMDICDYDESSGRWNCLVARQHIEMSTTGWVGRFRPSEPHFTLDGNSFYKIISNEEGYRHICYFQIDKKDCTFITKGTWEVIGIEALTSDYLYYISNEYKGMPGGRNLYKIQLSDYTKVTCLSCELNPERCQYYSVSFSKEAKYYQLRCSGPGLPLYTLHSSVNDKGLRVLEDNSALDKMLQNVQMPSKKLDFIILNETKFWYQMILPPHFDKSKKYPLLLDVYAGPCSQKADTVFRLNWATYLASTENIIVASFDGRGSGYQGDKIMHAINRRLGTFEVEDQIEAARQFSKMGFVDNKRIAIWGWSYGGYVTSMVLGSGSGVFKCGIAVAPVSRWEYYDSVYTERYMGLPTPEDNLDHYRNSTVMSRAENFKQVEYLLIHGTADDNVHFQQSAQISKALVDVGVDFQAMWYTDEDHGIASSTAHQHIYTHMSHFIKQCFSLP

[12] = Drug distribution in deep organs of C57BL/6J mouse at 100 mg/kg, po administered as single dose measured for 0.5 to 3 hrs by UHPLC-Q-Orbitrap HRMS analysis; type: ADME, organism-based, Deep organ; details: in vivo, time 0.5-3 hrs
[13] = Sub-acute toxicity in C57BL/6J mouse assessed as abnormality in heart at 100 mg/kg/day, po treated for 14 days consecutively by H and E staining based analysis; type: organism-based; details: in vivo, 336 h, time 14 day
[14] = Sub-acute toxicity in C57BL/6J mouse assessed as abnormality in lung at 100 mg/kg/day, po treated for 14 days consecutively by H and E staining based analysis; type: organism-based; details: in vivo, 336 h, time 14 day
[15] = Drug distribution in serum of C57BL/6J mouse at 100 mg/kg, po administered as single dose measured for 0.5 to 3 hrs by UHPLC-Q-Orbitrap HRMS analysis; type: ADME, organism-based; details: in vivo, time 0.5-3 hrs
Homo sapiens [16] = species on record: Homo sapiens; test: (§1) Covalent inhibition of human CES2A
[17] = as §1
Mus musculus [18] = test: Inhibition of irinotecan-triggered gut toxicity in C57BL/6J mouse bearing tumor cells assessed as decrease in serum UREA level at 25 to 50 mg/kg/day, po treated for 14 days; type: functional, organism-based; details: dose 25-50 mg/kg/day, time 14.0 day
[19] = Sub-acute toxicity in C57BL/6J mouse assessed as change in movement behaviors at 100 mg/kg/day, po treated for 14 days consecutively; type: organism-based; details: in vivo, 336 h, time 14 day
HepG2 = test: Cytotoxicity against human HepG2 cells at <20 uM; type: toxicity, cell-based; details: hepg2, 20 µM
[20] = Sub-acute toxicity in C57BL/6J mouse assessed as change in AST level at 100 mg/kg/day, po treated for 14 days consecutively; type: organism-based; details: in vivo, 336 h, time 14 day
Cytochrome P450 3A4 = Cytochrome P450 3A4 (Homo sapiens, UniProt P08684); test: Inhibition of CYP3A4 in human liver microsomes using testosterone as substrate upto 10 uM; type: ADME, Microsome
Sequence of Cytochrome P450 3A4 (P08684 whole entry): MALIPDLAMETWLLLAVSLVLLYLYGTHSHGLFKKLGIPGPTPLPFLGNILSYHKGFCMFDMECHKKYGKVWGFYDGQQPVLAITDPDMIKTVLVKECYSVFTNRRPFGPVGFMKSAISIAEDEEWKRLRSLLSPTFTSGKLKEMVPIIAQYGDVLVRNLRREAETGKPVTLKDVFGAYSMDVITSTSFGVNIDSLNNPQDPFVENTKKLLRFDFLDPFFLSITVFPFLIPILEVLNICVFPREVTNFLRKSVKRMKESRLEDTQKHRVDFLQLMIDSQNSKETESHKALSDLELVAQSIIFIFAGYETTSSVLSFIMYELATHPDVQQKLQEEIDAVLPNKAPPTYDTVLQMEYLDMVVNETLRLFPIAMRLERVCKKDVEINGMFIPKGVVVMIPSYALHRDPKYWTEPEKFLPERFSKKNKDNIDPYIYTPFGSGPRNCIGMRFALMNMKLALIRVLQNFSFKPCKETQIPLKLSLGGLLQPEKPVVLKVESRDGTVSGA

Cytochrome P450 2C9 = Cytochrome P450 2C9 (Homo sapiens, UniProt P11712); test: Inhibition of CYP2C9 in human liver microsomes using diclofenac as substrate upto 10 uM; type: ADME, Microsome
Sequence of Cytochrome P450 2C9 (P11712 whole entry): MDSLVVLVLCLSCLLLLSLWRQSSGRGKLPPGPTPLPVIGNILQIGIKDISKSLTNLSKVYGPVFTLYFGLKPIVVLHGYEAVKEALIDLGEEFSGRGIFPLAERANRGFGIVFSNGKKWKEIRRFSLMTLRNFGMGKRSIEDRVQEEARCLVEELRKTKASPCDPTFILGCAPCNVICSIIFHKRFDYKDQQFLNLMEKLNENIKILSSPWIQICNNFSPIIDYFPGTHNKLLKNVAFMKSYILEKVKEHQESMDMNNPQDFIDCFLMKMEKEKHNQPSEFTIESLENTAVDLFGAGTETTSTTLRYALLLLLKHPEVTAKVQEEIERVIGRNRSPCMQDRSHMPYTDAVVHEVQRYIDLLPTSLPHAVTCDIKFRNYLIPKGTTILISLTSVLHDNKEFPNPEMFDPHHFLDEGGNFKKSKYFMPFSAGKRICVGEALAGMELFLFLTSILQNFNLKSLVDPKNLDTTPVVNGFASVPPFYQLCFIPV

Mus musculus [21] = test: Inhibition of irinotecan-triggered gut toxicity in C57BL/6J mouse bearing tumor cells assessed as decrease in SN38 level in colon tissue at 25 to 50 mg/kg/day, po treated for 14 days; type: functional, organism-based; details: dose 25-50 mg/kg/day, time 14.0 day
Prothrombin = Prothrombin (Homo sapiens, UniProt P00734); test: Inhibition of human Thrombin using Z-GGRAMC as substrate preincubated for 3 mins followed by substrate addition by fluorescence based assay
[22] = Sub-acute toxicity in C57BL/6J mouse assessed as change in TP level at 100 mg/kg/day, po treated for 14 days consecutively; type: organism-based; details: in vivo, 336 h, time 14 day
[23] = Sub-acute toxicity in C57BL/6J mouse assessed as abnormality in brain at 100 mg/kg/day, po treated for 14 days consecutively by H and E staining based analysis; type: organism-based; details: in vivo, 336 h, time 14 day
[24] = Sub-acute toxicity in C57BL/6J mouse assessed as change in ALT level at 100 mg/kg/day, po treated for 14 days consecutively; type: organism-based; details: in vivo, 336 h, time 14 day
[25] = Apparent permeability across apical to basal side in human Caco-2 cells at 25 uM incubated for 120 mins by UPLC-MS/MS analysis; type: ADME, cell-based
[26] = Sub-acute toxicity in C57BL/6J mouse assessed as change in ALP level at 100 mg/kg/day, po treated for 14 days consecutively; type: organism-based; details: in vivo, 336 h, time 14 day
[27] = Sub-acute toxicity in C57BL/6J mouse assessed as change in UREA level at 100 mg/kg/day, po treated for 14 days consecutively; type: organism-based; details: in vivo, 336 h, time 14 day
Cytochrome P450 2C8 = target: T1, Cytochrome P450 2C8 (Homo sapiens, UniProt P10632); test: Inhibition of CYP2C8 in human liver microsomes using paclitaxel as substrate upto 10 uM; type: ADME, Microsome
T1 sequence (P10632 whole entry): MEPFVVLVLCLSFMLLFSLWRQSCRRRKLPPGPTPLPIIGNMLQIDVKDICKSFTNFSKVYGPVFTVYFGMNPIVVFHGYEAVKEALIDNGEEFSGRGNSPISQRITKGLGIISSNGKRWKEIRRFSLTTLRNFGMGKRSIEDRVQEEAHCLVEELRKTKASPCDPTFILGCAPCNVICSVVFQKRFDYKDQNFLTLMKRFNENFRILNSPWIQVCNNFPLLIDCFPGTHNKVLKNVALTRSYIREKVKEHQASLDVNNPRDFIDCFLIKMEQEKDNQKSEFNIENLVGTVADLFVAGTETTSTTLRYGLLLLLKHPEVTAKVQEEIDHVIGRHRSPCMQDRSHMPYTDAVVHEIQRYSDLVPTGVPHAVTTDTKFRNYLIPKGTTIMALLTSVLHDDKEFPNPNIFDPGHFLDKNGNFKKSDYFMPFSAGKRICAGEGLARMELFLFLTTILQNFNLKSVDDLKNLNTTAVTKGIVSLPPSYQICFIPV

For `CCN(C)C(=O)Oc1ccc(C(=O)N2CCC(Cc3ccccc3)CC2)cc1OC`, the “inhibition (INH)” value (Cytochrome P450 2D6) was “Not_active”, the inhibition (Homo sapiens [1]) was “Active” and the Activity [2] was “Non-toxic”. For the same compound, the Drug uptake [3] was “Active”, the efflux ratio at 2 h, 50 µM [4] was 0.67 and the efflux ratio at 2 h, 25 µM [5] was 0.64. For the same compound, the IC50 [6] was 0.04 nM, the Drug uptake [7] was “Active” and the inhibition (Mus musculus [8]) was “Active”. The inhibition (Mus musculus [9]) was “Active”, the inhibition (Homo sapiens [10]) was “Dose-dependent-effect” and the Activity [11] was 9.47 µM. The IC50 (Dipeptidyl peptidase 4) was over 10000 nM, the Drug uptake [12] was “Not_active” and the Activity [13] was “Non-toxic”. For the same compound, the Activity [14] was “Non-toxic”, the Drug uptake [15] was “Not_active” and the Kinact (Homo sapiens [16]) was 0.033 min⁻¹. The Ki [17] was 0.065 nM, the inhibition (Mus musculus [18]) was “Active” and the Activity [19] was “Non-toxic”. For the same compound, the Activity (HepG2) was “Non-toxic”, the Activity [20] was “Non-toxic” and the “inhibition (INH)” value (Cytochrome P450 3A4) was “Not_active”. For the same compound, the “inhibition (INH)” value (Cytochrome P450 2C9) was “Not_active”, the inhibition (Mus musculus [21]) was “Active” and the IC50 (Prothrombin) was over 10000 nM. The Activity [22] was “Non-toxic”, the Activity [23] was “Non-toxic” and the Activity [24] was “Non-toxic”. For the same compound, the Papp A→B at 2 h, 25 µM [25] was 157 nm/s, the Activity [26] was “Non-toxic” and the Activity [27] was “Non-toxic”. The “inhibition (INH)” value (Cytochrome P450 2C8) was “Not_active”.
